In ChEMBL document CHEMBL3396945, “Modified calanolides incorporated with furan-2-nitro mimics against Mycobacterium tuberculosis” (2015):
Values after ≈ are worked out from the molar mass of the structure shown.

How the values were obtained:
[1] = tested on: Mycobacterium tuberculosis; assay: microbe, parasite or virus in culture; assay type: functional
[2] = tested on: Mycobacterium tuberculosis; assay: microbe, parasite or virus in culture; assay type: functional; remark: listed apart in the source

Compound	MIC [1] [mg/L]	MIC [2] [mg/L]
CCCc1cc(=O)oc2c1c1c(c3oc(C(=O)OCC)cc32)C=CC(C)(C)O1	> 50	> 50
CCCc1cc(=O)oc2c1c1c(c3oc(C(=O)NNC(=O)c4ccncc4)cc32)C=CC(C)(C)O1	25 (≈ 52.8 µM)	> 50
CCCc1cc(=O)oc2c1c(OCCN1CCOCC1)cc1oc(C(=O)OCC)cc12	> 50	> 50
CCCc1cc(=O)oc2c1c(OCCN1CCOCC1)cc1oc(/C(N)=N\O)cc12	> 50	> 50
CCCc1cc(=O)oc2c1c(OCCN1CCOCC1)cc1oc(C(=O)NN)cc12	> 50	> 50
CCCc1cc(=O)oc2c1c(OCCN1CCOCC1)cc1oc(C#N)cc12	> 50	> 50
CCCc1cc(=O)oc2c1c1c(c3oc(C#N)cc32)C=CC(C)(C)O1	> 50	> 50
CCCc1cc(=O)oc2c1c(OCCN1CCOCC1)cc1oc(-c3noc(C(F)(F)F)n3)cc12	> 50	> 50
CCCc1cc(=O)oc2c1c1c(c3oc(C(=O)O)cc32)C=CC(C)(C)O1	> 50	> 50
CCCc1cc(=O)oc2c1c1c(c3oc(NC(=O)OCC)cc32)C=CC(C)(C)O1	> 50	> 50
CCCc1cc(=O)oc2c1c(OCCN1CCOCC1)cc1oc(C(=N)N)cc12	> 50	> 50
CCCc1cc(=O)oc2c1c(OCCN1CCOCC1)cc1oc(-c3noc(=O)[nH]3)cc12	> 50	> 50
CCCc1cc(=O)oc2c1c1c(c3oc(C(=O)NN)cc32)C=CC(C)(C)O1	50 (≈ 136 µM)	> 50
CCCc1cc(=O)oc2c1c1c(c3oc(C(=O)N=[N+]=[N-])cc32)C=CC(C)(C)O1	> 50	> 50
CCCc1cc(=O)oc2c1c(OCCN1CCOCC1)cc1oc(C(=O)O)cc12	> 50	> 50
CCCc1cc(=O)oc2c1c(OCCN1CCOCC1)cc1oc(-c3noc(C)n3)cc12	> 50	> 50
